According to PubChem BioAssay AID1259407 (Chemical Carcinogenesis Research Information System (CCRIS), 2018):
Calls of active or inactive are those of the source. No rule for the calls is given here.

Test system: CCRIS mutagenicity, Ames/micronucleus/aberration tests
Assay: CCRIS mutagenicity studies
[1] = Test System: AMES SALMONELLA TYPHIMURIUM, Strain/Indicator: TA97, Metabolic Activation: NONE, Method: PREINCUBATION
[2] = Test System: AMES SALMONELLA TYPHIMURIUM, Strain/Indicator: TA98, Metabolic Activation: NONE, Method: PREINCUBATION
[3] = Test System: AMES SALMONELLA TYPHIMURIUM, Strain/Indicator: TA100, Metabolic Activation: NONE, Method: PREINCUBATION
[4] = Test System: AMES SALMONELLA TYPHIMURIUM, Strain/Indicator: TA1535, Metabolic Activation: NONE, Method: PREINCUBATION
[5] = Test System: AMES SALMONELLA TYPHIMURIUM, Strain/Indicator: TA100, Metabolic Activation: NONE, Method: STANDARD PLATE

## Clc1c(Cl)c(Cl)c2c(c1Cl)Oc1c(Cl)c(Cl)c(Cl)c(Cl)c1O2
Test System: AMES SALMONELLA TYPHIMURIUM, Strain/Indicator: TA97, Metabolic Activation: HAMSTER, LIVER, S-9, AROCLOR 1254 (10 OR 30%), Method: PREINCUBATION
  mutagenic call: inactive; negative
[1]
  mutagenic call: inactive; negative
Test System: AMES SALMONELLA TYPHIMURIUM, Strain/Indicator: TA97, Metabolic Activation: RAT, LIVER, S-9, AROCLOR 1254 (10 OR 30%), Method: PREINCUBATION
  mutagenic call: inactive; negative
Test System: AMES SALMONELLA TYPHIMURIUM, Strain/Indicator: TA98, Metabolic Activation: HAMSTER, LIVER, S-9, AROCLOR 1254 (10 OR 30%), Method: PREINCUBATION
  mutagenic call: inactive; negative
[2]
  mutagenic call: inactive; negative
Test System: AMES SALMONELLA TYPHIMURIUM, Strain/Indicator: TA98, Metabolic Activation: RAT, LIVER, S-9, AROCLOR 1254 (10 OR 30%), Method: PREINCUBATION
  mutagenic call: inactive; negative
Test System: AMES SALMONELLA TYPHIMURIUM, Strain/Indicator: TA100, Metabolic Activation: HAMSTER, LIVER, S-9, AROCLOR 1254 (10 OR 30%), Method: PREINCUBATION
  mutagenic call: inactive; negative
[3]
  mutagenic call: inactive; negative
Test System: AMES SALMONELLA TYPHIMURIUM, Strain/Indicator: TA100, Metabolic Activation: RAT, LIVER, S-9, AROCLOR 1254 (10 OR 30%), Method: PREINCUBATION
  mutagenic call: inactive; negative
Test System: AMES SALMONELLA TYPHIMURIUM, Strain/Indicator: TA1535, Metabolic Activation: HAMSTER, LIVER, S-9, AROCLOR 1254 (10 OR 30%), Method: PREINCUBATION
  mutagenic call: inactive; negative
[4]
  mutagenic call: inactive; negative
Test System: AMES SALMONELLA TYPHIMURIUM, Strain/Indicator: TA1535, Metabolic Activation: RAT, LIVER, S-9, AROCLOR 1254 (10 OR 30%), Method: PREINCUBATION
  mutagenic call: inactive; negative

## Cn1cnc(-c2ccccc2)c1[N+](=O)[O-]
[5]
  mutagenic call: active; positive

## O=c1[nH]c(=O)n([C@H]2C[C@H](O)[C@@H](CO)O2)cc1CCCl
End Point: IN VITRO MICRONUCLEUS, Test System: V79 CHINESE HAMSTER CELLS, Metabolic Activation: NONE
  mutagenic call: inactive; negative
End Point: IN VITRO MICRONUCLEUS, Test System: V79 CHINESE HAMSTER CELLS, Metabolic Activation: RAT, LIVER, S-9, AROCLOR 1254
  mutagenic call: inactive; negative
End Point: IN VIVO MICRONUCLEUS, Test System: BONE MARROW POLYCHROMATIC ERYTHROCYTES, Species: MOUSE, Strain/Sex: CD-1/MALE, FEMALE, Route: GAVAGE
  mutagenic call: inactive; negative
[1]
  mutagenic call: inactive; negative
Test System: AMES SALMONELLA TYPHIMURIUM, Strain/Indicator: TA97, Metabolic Activation: RAT, LIVER, S-9, AROCLOR 1254, Method: PREINCUBATION
  mutagenic call: inactive; negative
[2]
  mutagenic call: inactive; negative
Test System: AMES SALMONELLA TYPHIMURIUM, Strain/Indicator: TA98, Metabolic Activation: NONE, Method: STANDARD PLATE
  mutagenic call: inactive; negative
Test System: AMES SALMONELLA TYPHIMURIUM, Strain/Indicator: TA98, Metabolic Activation: RAT, LIVER, S-9, AROCLOR 1254, Method: PREINCUBATION
  mutagenic call: inactive; negative
Test System: AMES SALMONELLA TYPHIMURIUM, Strain/Indicator: TA98, Metabolic Activation: RAT, LIVER, S-9, AROCLOR 1254, Method: STANDARD PLATE
  mutagenic call: inactive; negative
[3]
  mutagenic call: inactive; negative
[5]
  mutagenic call: inactive; negative
Test System: AMES SALMONELLA TYPHIMURIUM, Strain/Indicator: TA100, Metabolic Activation: RAT, LIVER, S-9, AROCLOR 1254, Method: PREINCUBATION
  mutagenic call: inactive; negative
Test System: AMES SALMONELLA TYPHIMURIUM, Strain/Indicator: TA100, Metabolic Activation: RAT, LIVER, S-9, AROCLOR 1254, Method: STANDARD PLATE
  mutagenic call: inactive; negative
Test System: AMES SALMONELLA TYPHIMURIUM, Strain/Indicator: TA102, Metabolic Activation: NONE, Method: PREINCUBATION
  mutagenic call: inactive; negative
Test System: AMES SALMONELLA TYPHIMURIUM, Strain/Indicator: TA102, Metabolic Activation: NONE, Method: STANDARD PLATE
  mutagenic call: active; positive
Test System: AMES SALMONELLA TYPHIMURIUM, Strain/Indicator: TA102, Metabolic Activation: RAT, LIVER, S-9, AROCLOR 1254, Method: PREINCUBATION
  mutagenic call: inactive; negative
Test System: AMES SALMONELLA TYPHIMURIUM, Strain/Indicator: TA102, Metabolic Activation: RAT, LIVER, S-9, AROCLOR 1254, Method: STANDARD PLATE
  mutagenic call: active; positive
Test System: AMES SALMONELLA TYPHIMURIUM, Strain/Indicator: TA104, Metabolic Activation: NONE, Method: PREINCUBATION
  mutagenic call: inactive; negative
Test System: AMES SALMONELLA TYPHIMURIUM, Strain/Indicator: TA104, Metabolic Activation: RAT, LIVER, S-9, AROCLOR 1254, Method: PREINCUBATION
  mutagenic call: inactive; negative
[4]
  mutagenic call: inactive; negative
Test System: AMES SALMONELLA TYPHIMURIUM, Strain/Indicator: TA1535, Metabolic Activation: NONE, Method: STANDARD PLATE
  mutagenic call: active; positive
Test System: AMES SALMONELLA TYPHIMURIUM, Strain/Indicator: TA1535, Metabolic Activation: RAT, LIVER, S-9, AROCLOR 1254, Method: PREINCUBATION
  mutagenic call: inactive; negative
Test System: AMES SALMONELLA TYPHIMURIUM, Strain/Indicator: TA1535, Metabolic Activation: RAT, LIVER, S-9, AROCLOR 1254, Method: STANDARD PLATE
  mutagenic call: active; positive
Test System: AMES SALMONELLA TYPHIMURIUM, Strain/Indicator: TA1537, Metabolic Activation: NONE, Method: PREINCUBATION
  mutagenic call: inactive; negative
Test System: AMES SALMONELLA TYPHIMURIUM, Strain/Indicator: TA1537, Metabolic Activation: NONE, Method: STANDARD PLATE
  mutagenic call: inactive; negative
Test System: AMES SALMONELLA TYPHIMURIUM, Strain/Indicator: TA1537, Metabolic Activation: RAT, LIVER, S-9, AROCLOR 1254, Method: PREINCUBATION
  mutagenic call: inactive; negative
Test System: AMES SALMONELLA TYPHIMURIUM, Strain/Indicator: TA1537, Metabolic Activation: RAT, LIVER, S-9, AROCLOR 1254, Method: STANDARD PLATE
  mutagenic call: inactive; negative
Test System: AMES SALMONELLA TYPHIMURIUM, Strain/Indicator: TA1538, Metabolic Activation: NONE, Method: PREINCUBATION
  mutagenic call: inactive; negative
Test System: AMES SALMONELLA TYPHIMURIUM, Strain/Indicator: TA1538, Metabolic Activation: NONE, Method: STANDARD PLATE
  mutagenic call: inactive; negative
Test System: AMES SALMONELLA TYPHIMURIUM, Strain/Indicator: TA1538, Metabolic Activation: RAT, LIVER, S-9, AROCLOR 1254, Method: PREINCUBATION
  mutagenic call: inactive; negative
Test System: AMES SALMONELLA TYPHIMURIUM, Strain/Indicator: TA1538, Metabolic Activation: RAT, LIVER, S-9, AROCLOR 1254, Method: STANDARD PLATE
  mutagenic call: inactive; negative
Test System: CHINESE HAMSTER V-79, Strain/Indicator: V-79/8-AZAGUANINE, Metabolic Activation: NONE
  mutagenic call: active; positive

## COc1ccc2c(OC)c3ccoc3nc2c1OC
Test System: AMES SALMONELLA TYPHIMURIUM, Strain/Indicator: TA98, Metabolic Activation: RAT, LIVER, MICROSOMES, PHENOBARBITAL, Method: STANDARD PLATE
  mutagenic call: active; positive
Test System: AMES SALMONELLA TYPHIMURIUM, Strain/Indicator: TA98, Metabolic Activation: RAT, LIVER, S-9, PHENOBARBITAL, Method: STANDARD PLATE
  mutagenic call: active; positive
Test System: AMES SALMONELLA TYPHIMURIUM, Strain/Indicator: TA100, Metabolic Activation: RAT, LIVER, MICROSOMES, PHENOBARBITAL, Method: STANDARD PLATE
  mutagenic call: active; positive
Test System: AMES SALMONELLA TYPHIMURIUM, Strain/Indicator: TA100, Metabolic Activation: RAT, LIVER, S-9, PHENOBARBITAL, Method: STANDARD PLATE
  mutagenic call: active; positive
Test System: AMES SALMONELLA TYPHIMURIUM, Strain/Indicator: TA1535, Metabolic Activation: RAT, LIVER, MICROSOMES, PHENOBARBITAL, Method: STANDARD PLATE
  mutagenic call: inactive; negative
Test System: AMES SALMONELLA TYPHIMURIUM, Strain/Indicator: TA1538, Metabolic Activation: RAT, LIVER, MICROSOMES, PHENOBARBITAL, Method: STANDARD PLATE
  mutagenic call: inactive; negative

## CC(=O)OCc1c(O)cc2c(c1O)C(=O)c1ccccc1C2=O
[2]
  mutagenic call: active; positive
Test System: AMES SALMONELLA TYPHIMURIUM, Strain/Indicator: TA98, Metabolic Activation: RAT, LIVER, S-9, PCB, Method: PREINCUBATION
  mutagenic call: active; positive
[3]
  mutagenic call: active; positive
Test System: AMES SALMONELLA TYPHIMURIUM, Strain/Indicator: TA100, Metabolic Activation: RAT, LIVER, S-9, PCB, Method: PREINCUBATION
  mutagenic call: active; positive
